Measurements: patent US20250170104A1, “INHIBITORS OF PSEUDOMONAS AERUGINOSA VIRULENCE FACTOR Lasß” (priority 2022, published 2025)

Columns and labels:
[1] = target: LasB (Pseudomonas aeruginosa (strain ATCC 15692 / DSM 22644 / CIP 104116 / JCM 14847 / LMG 12228 / 1C / PRS 101 / PAO1), UniProt P14756); experiment: In vitro LasB activity assay (fluorogenic substrate); type: biochemical; details: LasB 0.3 nM, substrate 150 μM, mean ± SD
In short: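 LasB (0.3 nM) preincubated 15 min at 37 °C with compound, then 150 µM Abz-Ala-Gly-Leu-Ala-p-nitrobenzylamide added in 50 mM Tris pH 7.2, 2.5 mM CaCl2, 0.075% Pluronic F-127, 5% DMSO. Fluorescence (ex 340, em 415 nm) followed 60 min at 37 °C. IC50 from blank-corrected v/v0 slopes, nonlinear regression, Hill slope fixed at 1.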

[2] = target: HDAC8 (Homo sapiens (Human), UniProt Q9BY41); experiment: HDAC inhibition; type: biochemical; details: read-out: Selectivity IC50 HDAC8
Chain of HDAC8 (Q9BY41 whole entry): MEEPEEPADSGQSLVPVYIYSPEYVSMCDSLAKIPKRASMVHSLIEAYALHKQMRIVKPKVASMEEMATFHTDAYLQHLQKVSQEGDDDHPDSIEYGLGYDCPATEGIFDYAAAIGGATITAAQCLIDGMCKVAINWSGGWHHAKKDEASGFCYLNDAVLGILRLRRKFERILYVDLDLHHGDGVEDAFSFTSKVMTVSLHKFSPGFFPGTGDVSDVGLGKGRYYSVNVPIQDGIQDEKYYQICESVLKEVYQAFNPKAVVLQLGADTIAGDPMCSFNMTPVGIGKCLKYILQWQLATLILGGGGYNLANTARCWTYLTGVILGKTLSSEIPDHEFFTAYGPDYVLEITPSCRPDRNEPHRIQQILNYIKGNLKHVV
Protocol: (§1) HDAC3 and HDAC8 Inhibitor Screening Assay kits were purchased from Sigma-Aldrich. The assay was performed according to the guidelines of the manufacturer using trichostatin as a positive control. Fluorescence signals were measured in a CLARIOstar plate reader (BMG Labtech).

[3] = target: HDAC3 (Homo sapiens (Human), UniProt O15379); experiment: HDAC inhibition; type: biochemical; details: read-out: Selectivity IC50 HDAC3
Chain of HDAC3 (O15379 whole entry, looked up): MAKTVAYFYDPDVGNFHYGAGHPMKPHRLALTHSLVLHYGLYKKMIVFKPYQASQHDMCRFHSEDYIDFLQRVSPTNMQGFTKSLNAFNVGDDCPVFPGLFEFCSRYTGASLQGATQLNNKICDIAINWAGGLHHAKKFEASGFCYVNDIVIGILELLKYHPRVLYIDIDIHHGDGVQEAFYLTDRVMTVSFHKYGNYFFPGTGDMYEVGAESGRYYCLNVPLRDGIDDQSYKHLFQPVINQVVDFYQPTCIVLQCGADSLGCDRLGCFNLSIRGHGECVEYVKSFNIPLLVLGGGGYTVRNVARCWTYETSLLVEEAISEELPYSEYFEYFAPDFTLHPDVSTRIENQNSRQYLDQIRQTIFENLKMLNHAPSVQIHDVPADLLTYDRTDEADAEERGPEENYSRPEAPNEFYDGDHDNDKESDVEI
Chain of HDAC3 (Q9Y618 whole entry partner, looked up): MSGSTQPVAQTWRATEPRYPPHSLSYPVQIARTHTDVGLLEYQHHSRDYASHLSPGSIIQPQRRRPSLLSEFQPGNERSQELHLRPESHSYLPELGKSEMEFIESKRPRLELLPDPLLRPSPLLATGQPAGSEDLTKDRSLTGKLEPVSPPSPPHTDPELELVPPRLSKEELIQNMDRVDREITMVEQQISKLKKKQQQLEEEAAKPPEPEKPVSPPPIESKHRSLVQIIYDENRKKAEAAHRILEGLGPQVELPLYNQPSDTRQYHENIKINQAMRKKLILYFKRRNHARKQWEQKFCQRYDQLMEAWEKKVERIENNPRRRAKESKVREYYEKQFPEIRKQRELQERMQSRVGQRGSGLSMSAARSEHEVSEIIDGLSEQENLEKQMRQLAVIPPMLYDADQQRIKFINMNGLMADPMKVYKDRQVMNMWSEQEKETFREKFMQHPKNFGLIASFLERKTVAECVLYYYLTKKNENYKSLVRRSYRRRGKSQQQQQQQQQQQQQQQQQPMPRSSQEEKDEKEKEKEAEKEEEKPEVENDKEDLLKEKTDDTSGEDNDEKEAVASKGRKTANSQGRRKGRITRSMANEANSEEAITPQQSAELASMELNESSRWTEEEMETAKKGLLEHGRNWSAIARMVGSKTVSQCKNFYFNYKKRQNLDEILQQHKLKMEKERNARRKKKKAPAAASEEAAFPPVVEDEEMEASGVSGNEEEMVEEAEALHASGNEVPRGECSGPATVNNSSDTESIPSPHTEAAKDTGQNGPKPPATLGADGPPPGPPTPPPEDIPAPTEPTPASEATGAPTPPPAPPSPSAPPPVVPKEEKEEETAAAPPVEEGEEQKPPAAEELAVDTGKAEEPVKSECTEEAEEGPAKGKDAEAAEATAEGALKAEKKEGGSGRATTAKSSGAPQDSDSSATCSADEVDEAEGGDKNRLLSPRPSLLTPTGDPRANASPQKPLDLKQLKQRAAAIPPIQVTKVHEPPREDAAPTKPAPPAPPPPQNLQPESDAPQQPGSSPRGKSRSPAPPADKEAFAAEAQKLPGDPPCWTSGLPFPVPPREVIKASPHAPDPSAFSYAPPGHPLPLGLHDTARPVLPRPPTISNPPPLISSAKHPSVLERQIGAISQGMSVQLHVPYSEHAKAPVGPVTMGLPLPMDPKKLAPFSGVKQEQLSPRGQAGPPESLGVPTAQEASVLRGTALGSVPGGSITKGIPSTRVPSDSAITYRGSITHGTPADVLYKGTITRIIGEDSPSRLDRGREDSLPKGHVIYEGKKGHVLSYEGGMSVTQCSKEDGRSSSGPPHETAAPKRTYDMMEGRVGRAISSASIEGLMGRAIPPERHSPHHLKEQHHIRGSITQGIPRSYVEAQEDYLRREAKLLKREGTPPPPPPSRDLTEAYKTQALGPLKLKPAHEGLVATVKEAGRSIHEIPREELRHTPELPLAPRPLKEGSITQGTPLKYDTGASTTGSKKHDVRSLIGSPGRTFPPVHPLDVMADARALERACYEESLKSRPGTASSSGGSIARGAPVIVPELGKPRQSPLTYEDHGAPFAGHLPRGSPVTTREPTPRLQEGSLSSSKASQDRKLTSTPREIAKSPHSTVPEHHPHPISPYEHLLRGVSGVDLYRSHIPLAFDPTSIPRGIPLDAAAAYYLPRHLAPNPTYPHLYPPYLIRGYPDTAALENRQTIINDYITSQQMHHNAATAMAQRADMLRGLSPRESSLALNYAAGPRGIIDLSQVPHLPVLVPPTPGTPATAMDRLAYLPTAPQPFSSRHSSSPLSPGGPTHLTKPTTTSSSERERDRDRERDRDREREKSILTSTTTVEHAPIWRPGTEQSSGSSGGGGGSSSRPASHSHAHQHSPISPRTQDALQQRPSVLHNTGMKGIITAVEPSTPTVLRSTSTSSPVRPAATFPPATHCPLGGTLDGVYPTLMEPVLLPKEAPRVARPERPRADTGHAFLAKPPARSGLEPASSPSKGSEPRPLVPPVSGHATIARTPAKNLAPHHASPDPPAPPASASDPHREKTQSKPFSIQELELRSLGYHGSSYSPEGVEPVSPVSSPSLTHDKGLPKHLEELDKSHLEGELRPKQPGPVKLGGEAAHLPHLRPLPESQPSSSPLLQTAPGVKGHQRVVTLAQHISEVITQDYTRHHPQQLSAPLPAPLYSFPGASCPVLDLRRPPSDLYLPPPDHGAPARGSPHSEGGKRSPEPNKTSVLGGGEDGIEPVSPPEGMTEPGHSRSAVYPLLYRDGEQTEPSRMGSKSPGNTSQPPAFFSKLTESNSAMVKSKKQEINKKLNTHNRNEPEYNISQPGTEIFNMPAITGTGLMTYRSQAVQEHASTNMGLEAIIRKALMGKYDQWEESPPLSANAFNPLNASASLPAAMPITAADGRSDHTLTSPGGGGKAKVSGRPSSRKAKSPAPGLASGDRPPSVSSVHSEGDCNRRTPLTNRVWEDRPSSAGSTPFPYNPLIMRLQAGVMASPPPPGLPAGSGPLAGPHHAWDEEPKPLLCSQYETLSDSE
Protocol: as §1

[4] = in vitro; type: in vitro ADME; details: mouse, s9
Protocol: For the evaluation of combined phase I and phase II metabolic stability, the compound (1 μM) was incubated with 1 mg/mL pooled liver S9 fraction (Xenotech), 2 mM NADPH, 1 mM UDPGA, 10 mM MgCl2, 5 mM GSH and 0.1 mM PAPS at 37° C. for 0, 5, 15, 30 and 60 min. The metabolic stability of Testosterone (1 μM), verapamil (1 μM) and ketoconazol (1 μM) were determined in parallel to confirm the enzymatic activity of the S9 fraction. The incubation was stopped by precipitation of S9 enzymes with 2 volumes of cold acetonitrile containing internal standard (150 nM Diphenhydramine). Samples were stored on ice for 10 min and precipitated protein was removed by centrifugation (15 min, 4° C., 4,000 rpm). The remaining test compound at different time points was analyzed by LC-MS/MS (TSQ Quantum Access MAX, Thermo Fisher, Dreieich, Germany) and used to determine half-life (t½).

[5] = Kinetic turbidimetric solubility assay; type: physicochemical; details: PBS, aqueous buffer, kinetic from dmso stock
Protocol: The desired compounds were sequentially diluted in DMSO in a 96-well plate. 1.5 μL of each well were transferred into another 96-well plate and mixed with 148.5 μL of PBS. Plates were shaken for 5 min at 600 rpm at room temperature, and the absorbance at 620 nm was measured. Absorbance values were normalized by blank subtraction and plotted using GraphPad Prism 8.4.2 (GraphPad Software, San Diego, CA, USA). Solubility (S) was determined based on the First X value of AUC function using a threshold of 0.005.

[6] = Cytotoxicity assay; type: cell-based; details: human
Protocol: HepG2, HEK293 or A549 cells (2×10^5 cells per well) were seeded in 24-well, flat-bottomed plates. Culturing of cells, incubations, and OD measurements were performed as described previously (Int. J. Cancer 2007, 121, 206-210). Twenty-four hours after seeding the cells, the incubation was started by the addition of test compound in a final DMSO concentration of 1%. The living cell mass was determined after 48 h. At least two independent measurements were performed for each compound.

Chain of LasB (P14756 198-498): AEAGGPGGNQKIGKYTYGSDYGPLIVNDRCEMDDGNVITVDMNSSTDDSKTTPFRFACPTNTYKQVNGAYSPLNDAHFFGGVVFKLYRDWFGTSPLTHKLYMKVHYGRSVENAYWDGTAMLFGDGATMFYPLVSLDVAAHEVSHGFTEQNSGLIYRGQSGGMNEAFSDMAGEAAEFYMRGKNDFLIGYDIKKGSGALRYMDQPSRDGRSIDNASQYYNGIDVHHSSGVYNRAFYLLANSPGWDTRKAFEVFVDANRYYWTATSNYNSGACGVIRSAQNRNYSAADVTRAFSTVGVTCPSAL

CC(C)CC(C(=O)NO)C(=O)Nc1ccc(Cn2cc(CNS(=O)(=O)CC(C)C)nn2)cc1 (centres unmarked) [Compound 169, 2-(Hydroxycarbamoyl)-N-[4-[[4-[(isobutylsulfonylamino)methyl]triazol-1-yl]methyl]phenyl]-4-methyl-pentanamide]
IC50 [1]: 0.0052 ± 0.0002 µM | IC50 [2]: > 100 µM | IC50 [3]: > 100 µM | half-life at 1 μM [4]: > 2 h | solubility at 5 min [5]: > 200 µM | IC50 at 48 h ([6]; A549 cells): > 100 µM | IC50 at 48 h ([6]; HEK293 cells): > 100 µM | IC50 at 48 h ([6]; HepG2 cells): > 100 µM
